Measurements as given in patent US20260240878A1, “PTP1B/TC-PTP DUAL INHIBITORS AND PROTEIN DEGRADERS” (Purdue Research Foundation, priority 2023, published 2026).
*1 amine or outer side, *2 acyl side, *3 side chain or, on linkers, in order; H or OH if unused. Where a SMILES comes first, the peptide text is derived from it. [ ]: non-standard residue; d: D form. The star is where a group is joined. NHCH2(1,3-C6H4)CH2CO = O=C(Cc1cccc(CN[*:1])c1)[*:2]; F2Pmp = N[C@@H](Cc1ccc(C(F)(F)P(=O)(O)O)cc1)C(=O)O; Phenylacetyl(4-OH,3-OMe) = COc1cc(CC(=O)*)ccc1O; Benzoyl(3-Br,4-Me) = Cc1ccc(C(=O)*)cc1Br; X1 = Cc1ncsc1-c1ccc([C@H](C)N*)cc1; Hyp = O=C(O)[C@@H]1C[C@@H](O)CN1; Tle = CC(C)(C)[C@H](N)C(=O)O

Assays:
MC38 cells = assay: MHC-I expression in MC38 cells by flow cytometry; assay type: cell-based; conditions: 500 nM 16 hours, then mouse IFN-γ 48 hours
Method: Mouse MHC-I complex was stained with mouse H2K(b)/H2D(b) antibody and measured by flow cytometry.
After incubation, MC38 cells were trypsinized and washed in PBS+2% FBS, stained with Alexa Fluor® 647 anti-mouse H-2Kb/H-2Db Antibody against mouse MHC-I complex and then analyzed on a BD Fortessa LSR flow cytometry cell analyzer.

PTP1B and TC-PTP = assay: Western blot quantification of PTP1B/TC-PTP and pSTAT1 in multiple cell lines; assay type: cell-based
Method: The GAPDH protein was used as the loading control. Compound 47 induces PTP1B and TC-PTP degradation in all tested cell lines with low nanomolar DC50s.
The GAPDH protein was used as the loading control. […] The changes in pSTAT1 level were positively correlated with TC-PTP/PTP1B degradation among all cell lines.
Tissues or cultured cells were lysed with ice-cold lysis buffer (50 mM Tris (pH 8.0, 150 mM NaCl, 10% Glycerol, 1% Triton-X-100) supplied with phosphatase inhibitor (Bimake) and protease inhibitor mixture (Roche Applied Science). Equal amounts of protein were resolved by SDS-PAGE, transferred to nitrocellulose membrane, and subjected to immunoblotting. Antibodies used in this study include anti-following proteins: pSTAT1^Tyr701 (Cell Signaling Technology #9167, 1:3000), GAPDH (Cell Signaling Technology #97166, 1:5000), pJAK1^Tyr1034/1035 (Cell Signaling Technology #74129, 1:1000), pJAK2^Tyr1007/1008 (Cell Signaling Technology #3776, 1:1000), TC-PTP (Abcam #ab180764, 1:3000). PTP1B (Abcam #ab244207, 1:1500).

pSTAT1 = assay: STAT1 phosphorylation in IFN-γ stimulated HEK293 cells (western blot); assay type: cell-based; conditions: Homo sapiens, HEK293, 16 h, read-out: EC50 of pSTAT1 activation
Method: Wild-type HEK293 cells were treated with compound 47 or ABBV-CLS-484 for 16 hours, and stimulated with 20 ng/ml IFN-γ to induce JAK-STAT signaling pathway activation.
Abbvie and Calico developed a potent PTP1B/TC-PTP inhibitor ABBV-CLS-484 (disclosed in International PCT application WO2019246513), and it is currently being evaluated as a treatment for locally advanced or metastatic tumors (NCT04777994).

TC-PTP [1] = target: T1, TC-PTP (Homo sapiens, UniProt P17706); assay: Degradation assay in HEK293 cells (immunoblotting); assay type: cell-based; parameters: Degradation assay was conducted in HEK293 cells with 1 μM degrader and 24 hours incubation; endogenous in cells; host or cells: HEK293; conditions: 16 hours, dose response
T1 sequence (P17706 1-415): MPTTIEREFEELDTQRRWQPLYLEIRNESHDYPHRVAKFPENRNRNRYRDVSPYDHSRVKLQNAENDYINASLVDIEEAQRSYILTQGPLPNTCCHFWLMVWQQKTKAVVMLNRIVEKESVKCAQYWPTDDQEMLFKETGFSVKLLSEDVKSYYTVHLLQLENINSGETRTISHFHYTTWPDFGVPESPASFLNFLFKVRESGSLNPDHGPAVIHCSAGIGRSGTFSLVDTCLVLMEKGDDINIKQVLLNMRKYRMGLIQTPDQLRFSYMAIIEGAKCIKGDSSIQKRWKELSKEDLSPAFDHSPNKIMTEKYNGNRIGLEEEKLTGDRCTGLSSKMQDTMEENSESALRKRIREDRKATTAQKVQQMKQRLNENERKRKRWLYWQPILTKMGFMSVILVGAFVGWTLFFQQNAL

TC-PTP [2] = target: T1, TC-PTP; assay: Degradation assay in HEK293 cells (immunoblotting); assay type: cell-based; parameters: endogenous in cells; host or cells: HEK293; conditions: 0.2 μM degrader, 16 hours, read-out: % Protein Degradation TC-PTP
HEK293 cells = assay: Proteomic analysis for degradation selectivity in HEK293 cells; assay type: cell-based; conditions: 100 nM, 4 hours
Method: The proteome-wide degradation selectivity of compound 47 was assessed by performing quantitative mass spectrometry-based proteomic experiments to determine the range of targets degraded by compound 47 in HEK293 cells.

[3] = Blood glucose levels study in mice; assay type: in vivo, mouse
Method: Blood glucose levels were measured 24 or 48 hours after injection. No starvation applied. NFD=normal fat diet fed mice. […] Mice were treated with 25 or 50 mg/kg of compound 47 daily through i.p. injection. Blood glucose levels were measured several times before injection during the experiment.
PTP1B and TC-PTP are known to function in concert in regulating both insulin and leptin-mediated cellular processes. The inhibition of PTP1B and TC-PTP was reported to improve insulin sensitivity and glucose homeostasis in diet-induced obese mice. The effect of compound 47 on the glucose levels in mice was evaluated.

COc1cc(CC(=O)N[C@@H](Cc2ccccc2)C(=O)N[C@@H](Cc2ccc(C(F)(F)P(=O)(O)O)cc2)C(=O)N[C@@H](CCCCNC(=O)c2ccc(C)c(Br)c2)C(=O)NCc2cccc(CC(=O)N[C@H](C(=O)N3C[C@H](O)C[C@H]3C(=O)N[C@@H](C)c3ccc(-c4scnc4C)cc3)C(C)(C)C)c2)ccc1O [Compound 47, ((4-((S)-3-(((S)-6-(3-bromo-4-methylbenzamido)-1-((3-(2-(((S)-1-((2S,4R)-4-hydroxy-2-(((S)-1-(4-(4-methylthiazol-5-yl)phenyl)ethyl)carbamoyl)pyrrolidin-1-yl)-3,3-dimethyl-1-oxobutan-2-yl)amino)-2-oxoethyl)benzyl)amino)-1-oxohexan-2-yl)amino)-2-((S)-2-(2-(4-hydroxy-3-methoxyphenyl)acetamido)-3-phenylpropanamido)-3-oxopropyl)phenyl)difluoromethyl)phosphonic Acid] ({Phenylacetyl(4-OH,3-OMe)}-F[F2Pmp]K(Benzoyl(3-Br,4-Me))[NHCH2(1,3-C6H4)CH2CO][Tle][Hyp]-X1)
MHC-I expression (MC38 cells): elevated expression of MHC-I | DC50 of PTP1B and TC-PTP degradation (PTP1B and TC-PTP; all tested cell lines, 16 hours): low nanomolar | pSTAT1 level (PTP1B and TC-PTP; multiple cell lines, 10 ng/ml IFN-γ 15 mins): enhances pSTAT1 level in all cell lines | EC50 (pSTAT1): 9.1 nM | TC-PTP degradation (TC-PTP [1]): dose-dependently induced degradation of TC-PTP | percent TC-PTP degradation at 0.2 µM (TC-PTP [2]): 92% | proteome-wide degradation selectivity (HEK293 cells): PTP1B was the only protein whose levels were significantly reduced | blood glucose level ([3]; MC38 tumor mouse model, 25 mg/kg daily i.p.): did not lead to significant reduction in the level of blood glucose | blood glucose level ([3]; MC38 tumor mouse model, 50 mg/kg daily i.p.): slightly reduced blood glucose level | blood glucose level ([3]; high-fat diet (HFD) mice, 15 mg/kg): sufficient to reduce blood glucose level in high-fat diet (HFD) mice to that of normal fat diet fed (NFD) mice | blood glucose level ([3]; high-fat diet (HFD) mice, 50 mg/kg): further reduced glucose levels
